Results published in patent US20140315883A1, “6H-IMIDAZO[1,5-a]PYRROLO[2,3-e]PYRAZINE COMPOUNDS” (ABBVIE INC., priority 2013, published 2014).

What follows are molecules tested against T1, Syk (Homo sapiens, UniProt P43405) (assay: In vitro Syk kinase activity measured by trFRET). Details: Syk catalytic domain, 0.001 mM ATP.
T1 construct: Purified Syk catalytic domain (aa 356-635 with a C-terminal His-tag purified in-house); His-tag (C); made in house
Format: biochemical
Description: In Vitro Syk Kinase Activity Measured by Time-Resolved Fluorescence Resonance Energy Transfer (trFRET)
After about 60 min incubation at rt, the reaction was quenched by addition of EDTA (final concentration: 100 mM) and developed by addition of revelation reagents (final approximate concentrations: 30 mM HEPES pH 7.0, 0.06% BSA, 0.006% Tween-20, 0.24 M KF, 80 ng/mL PT66K (europium labeled anti-phosphotyrosine antibody cat #61T66KLB Cisbio, Bedford, Mass.) and 0.6 μg/mL SAXL (Phycolink streptavidin-allophycocyanin acceptor, cat #PJ25S, Prozyme, San Leandro, Calif.). The developed reaction was incubated in the dark either at about 4° C. for about 14 h or for about 60 min at rt, then read via a time-resolved fluorescence detector (Rubystar, BMG) using a 337 nm laser for excitation and monitoring emission wavelengths at 665 nm. Within the linear range of the assay, the observed signal at 665 nm was directly related to phosphorylated product and can be used to calculate the IC50 values.

IC50 [nM] | SMILES
30 to 100 | CC(=O)N1C[C@H](O)C[C@@H]1c1nc(-c2ccc(O[C@H](C)C3CC3)cc2)c2cnc3[nH]ccc3n12 (single isomer, unassigned) [Example #2]
10 to 30 | CC(=O)N1C[C@H](O)C[C@@H]1c1nc(-c2ccsc2)c2cnc3[nH]ccc3n12 [A.1.1]
10 to 30 | CCOc1ccc(-c2nc([C@H]3C[C@@H](O)CN3C(C)=O)n3c2cnc2[nH]ccc23)cc1 [A.1.2, 1-((2R,4R)-2-(3-(4-ethoxyphenyl)-6H-imidazo[1,5-a]pyrrolo[2,3-e]pyrazin-1-yl)-4-hydroxypyrrolidin-1-yl)ethanone]
30 to 100 | CC(=O)N1C[C@H](O)C[C@@H]1c1nc(-c2ccc(OCCn3nccn3)cc2)c2cnc3[nH]ccc3n12 [A.1.3, 1-((2R,4R)-2-(3-(4-(2-(2H-1,2,3-triazol-2-yl)ethoxy)phenyl)-6H-imidazo[1,5-a]pyrrolo[2,3-e]pyrazin-1-yl)-4-hydroxypyrrolidin-1-yl)ethanone]
30 to 100 | CC(=O)N1C[C@H](O)C[C@@H]1c1nc(-c2ccc(C(F)F)cc2)c2cnc3[nH]ccc3n12 [A.1.5, 1-((2R,4R)-2-(3-(4-(difluoromethyl)phenyl)-6H-imidazo[1,5-a]pyrrolo[2,3-e]pyrazin-1-yl)-4-hydroxypyrrolidin-1-yl)ethanone]
< 10 | CC(=O)N1C[C@H](O)C[C@@H]1c1nc(-c2ccc(C3(C)COC3)cc2)c2cnc3[nH]ccc3n12 [A.1.6]
10 to 30 | CC(=O)N1C[C@H](O)C[C@@H]1c1nc(-c2ccc(OCC3(C)COC3)cc2)c2cnc3[nH]ccc3n12 [D.1.1, 1-((2R,4R)-4-hydroxy-2-(3-(4-((3-methyloxetan-3-yl)methoxy)phenyl)-6H-imidazo[1,5-a]pyrrolo[2,3-e]pyrazin-1-yl)pyrrolidin-1-yl)ethanone]
10 to 30 | CC(=O)N1C[C@H](O)C[C@@H]1c1nc(-c2csc(CO)c2)c2cnc3[nH]ccc3n12 [D.1.2, 1-((2R,4R)-4-hydroxy-2-(3-(5-(hydroxymethyl)thiophen-3-yl)-6H-imidazo[1,5-a]pyrrolo[2,3-e]pyrazin-1-yl)pyrrolidin-1-yl)ethanone]
10 to 30 | CC(=O)N1C[C@H](O)C[C@@H]1c1nc(-c2ccc(OCC3CC3)cc2)c2cnc3[nH]ccc3n12 [D.1.3, 1-((2R,4R)-2-(3-(4-(cyclopropylmethoxy)phenyl)-6H-imidazo[1,5-a]pyrrolo[2,3-e]pyrazin-1-yl)-4-hydroxypyrrolidin-1-yl)ethanone]
10 to 30 | CNc1ccc(-c2nc([C@H]3C[C@@H](O)CN3C(C)=O)n3c2cnc2[nH]ccc23)cc1 [Example #1, 1-((2R,4R)-4-Hydroxy-2-(3-(4-(methylamino)phenyl)-6H-imidazo[1,5-a]pyrrolo[2,3-e]pyrazin-1-yl)pyrrolidin-1-yl)ethanone]
10 to 30 | COc1ccc(-c2nc([C@H]3C[C@@H](O)CN3C(C)=O)n3c2cnc2[nH]ccc23)s1 [Example #3, 1-((2R,4R)-4-Hydroxy-2-(3-(5-methoxythiophen-2-yl)-6H-imidazo[1,5-a]pyrrolo[2,3-e]pyrazin-1-yl)pyrrolidin-1-yl)ethanone]
30 to 100 | CC(=O)N1C[C@H](O)C[C@@H]1c1nc(-c2cnc(C(C)(C)C)s2)c2cnc3[nH]ccc3n12 [Example #4, 1-((2R,4R)-2-(3-(2-(tert-Butyl)thiazol-5-yl)-6H-imidazo[1,5-a]pyrrolo[2,3-e]pyrazin-1-yl)-4-hydroxypyrrolidin-1-yl)ethanone]
< 10 | CC(=O)N1C[C@H](O)C[C@@H]1c1nc(-c2ccc(N3CCO[C@H](C)C3)cc2)c2cnc3[nH]ccc3n12 [Example #5 (R), 1-((2R,4R)-4-hydroxy-2-(3-(4-((R)-2-methylmorpholino)phenyl)-6H-imidazo[1,5-a]pyrrolo[2,3-e]pyrazin-1-yl)pyrrolidin-1-yl)ethanone]
< 10 | CC(=O)N1C[C@H](O)C[C@@H]1c1nc(-c2ccc(N3CCO[C@@H](C)C3)cc2)c2cnc3[nH]ccc3n12 [Example #5 (S), 1-((2R,4R)-4-Hydroxy-2-(3-(4-((S)-2-methylmorpholino)phenyl)-6H-imidazo[1,5-a]pyrrolo[2,3-e]pyrazin-1-yl)pyrrolidin-1-yl)ethanone]
30 to 100 | COCc1ccc(-c2nc([C@H]3C[C@@H](O)CN3C(C)=O)n3c2cnc2[nH]ccc23)cc1 [Example #7, 1-((2R,4R)-4-Hydroxy-2-(3-(4-(methoxymethyl)phenyl)-6H-imidazo[1,5-a]pyrrolo[2,3-e]pyrazin-1-yl)pyrrolidin-1-yl)ethanone]
30 to 100 | CC(=O)N1C[C@H](O)C[C@@H]1c1nc(-c2ccc(Cn3nccn3)cc2)c2cnc3[nH]ccc3n12 [Example #8, 1-((2R,4R)-2-(3-(4-((2H-1,2,3-Triazol-2-yl)methyl)phenyl)-6H-imidazo[1,5-a]pyrrolo[2,3-e]pyrazin-1-yl)-4-hydroxypyrrolidin-1-yl)ethanone]
30 to 100 | CC(=O)N1C[C@H](O)C[C@@H]1c1nc(-c2ccc(OCC(F)(F)F)cc2)c2cnc3[nH]ccc3n12 [Example #9, 1-((2R,4R)-4-Hydroxy-2-(3-(4-(2,2,2-trifluoroethoxy)phenyl)-6H-imidazo[1,5-a]pyrrolo[2,3-e]pyrazin-1-yl)pyrrolidin-1-yl)ethanone]
10 to 30 | CC(=O)N1C[C@H](O)C[C@@H]1c1nc(-c2ccc(NC(C)C)cc2)c2cnc3[nH]ccc3n12 [Example #10, 1-((2R,4R)-4-Hydroxy-2-(3-(4-(isopropylamino)phenyl)-6H-imidazo[1,5-a]pyrrolo[2,3-e]pyrazin-1-yl)pyrrolidin-1-yl)ethanone]
30 to 100 | CC(=O)N1C[C@H](O)C[C@@H]1c1nc(-c2ccc(NC(C)C)cc2)c2cnc3[nH]cc(C)c3n12 [Example #11, 1-((2R,4R)-4-Hydroxy-2-(3-(4-(isopropylamino)phenyl)-8-methyl-6H-imidazo[1,5-a]pyrrolo[2,3-e]pyrazin-1-yl)pyrrolidin-1-yl)ethanone]
30 to 100 | CC(=O)N1C[C@H](O)C[C@@H]1c1nc(-c2ccc(C(F)(F)F)cc2)c2cnc3[nH]ccc3n12 [Example #A.1.4, 1-((2R,4R)-4-hydroxy-2-(3-(4-(trifluoromethyl)phenyl)-6H-imidazo[1,5-a]pyrrolo[2,3-e]pyrazin-1-yl)pyrrolidin-1-yl)ethanone]
10 to 30 | CCNc1ccc(-c2nc([C@H]3C[C@@H](O)CN3C(C)=O)n3c2cnc2[nH]ccc23)cc1 [Example #F.1, 1-((2R,4R)-2-(3-(4-(ethylamino)phenyl)-6H-imidazo[1,5-a]pyrrolo[2,3-e]pyrazin-1-yl)-4-hydroxypyrrolidin-1-yl)ethanone]
10 to 30 | COc1ccc(-c2nc([C@H]3C[C@@H](O)CN3C(C)=O)n3c2cnc2[nH]ccc23)cc1 [Example #F.1.4, 1-((2R,4R)-4-hydroxy-2-(3-(4-methoxyphenyl)-6H-imidazo[1,5-a]pyrrolo[2,3-e]pyrazin-1-yl)pyrrolidin-1-yl)ethanone]
> 100 | CC(=O)N1C[C@H](O)C[C@@H]1c1nc(-c2ccc(C(=O)N3CCC(F)(F)CC3)cc2)c2cnc3[nH]ccc3n12 [F.1.1, 1-((2R,4R)-2-(3-(4-(4,4-difluoropiperidine-1-carbonyl)phenyl)-6H-imidazo[1,5-a]pyrrolo[2,3-e]pyrazin-1-yl)-4-hydroxypyrrolidin-1-yl)ethanone]
< 10 | CC(=O)N1C[C@H](O)C[C@@H]1c1nc(-c2ccc(N3CCCCC3)cc2)c2cnc3[nH]ccc3n12 [F.1.1.13, 1-((2R,4R)-4-hydroxy-2-(3-(4-(piperidin-1-yl)phenyl)-6H-imidazo[1,5-a]pyrrolo[2,3-e]pyrazin-1-yl)pyrrolidin-1-yl)ethanone]
10 to 30 | CO[C@H](C)c1ccc(-c2nc([C@H]3C[C@@H](O)CN3C(C)=O)n3c2cnc2[nH]ccc23)cc1 [F.1.2, 1-((2R,4R)-4-hydroxy-2-(3-(4-((R)-1-methoxyethyl)phenyl)-6H-imidazo[1,5-a]pyrrolo[2,3-e]pyrazin-1-yl)pyrrolidin-1-yl)ethanone]
< 10 | CO[C@@H](C)c1ccc(-c2nc([C@H]3C[C@@H](O)CN3C(C)=O)n3c2cnc2[nH]ccc23)cc1 [F.1.3, 1-((2R,4R)-4-hydroxy-2-(3-(4-((S)-1-methoxyethyl)phenyl)-6H-imidazo[1,5-a]pyrrolo[2,3-e]pyrazin-1-yl)pyrrolidin-1-yl)ethanone]
10 to 30 | CC(=O)N1C[C@H](O)C[C@@H]1c1nc(-c2ccc(C(C)(C)O)c(F)c2)c2cnc3[nH]ccc3n12 [F.1.5, 1-((2R,4R)-2-(3-(3-fluoro-4-(2-hydroxypropan-2-yl)phenyl)-6H-imidazo[1,5-a]pyrrolo[2,3-e]pyrazin-1-yl)-4-hydroxypyrrolidin-1-yl)ethanone]
30 to 100 | CC(=O)N1C[C@H](O)C[C@@H]1c1nc(-c2ccc3c(c2)OCCO3)c2cnc3[nH]ccc3n12 [F.1.6, 1-((2R,4R)-2-(3-(2,3-dihydrobenzo[b][1,4]dioxin-6-yl)-6H-imidazo[1,5-a]pyrrolo[2,3-e]pyrazin-1-yl)-4-hydroxypyrrolidin-1-yl)ethanone]

SMILES | IC50 [nM]
COc1ccc(-c2nc([C@H]3C[C@@H](O)CN3C(=O)CF)n3c2cnc2[nH]ccc23)cc1 [E.1.1] | 10 to 30
COCCOc1ccc(-c2nc([C@H]3C[C@@H](O)CN3C(=O)CF)n3c2cnc2[nH]ccc23)cc1 [E.1.2, 2-fluoro-1-((2R,4R)-4-hydroxy-2-(3-(4-(2-methoxyethoxy)phenyl)-6H-imidazo[1,5-a]pyrrolo[2,3-e]pyrazin-1-yl)pyrrolidin-1-yl)ethanone] | 10 to 30
